We go through 2 compounds from US20140271734A1, “BILE ACID RECYCLING INHIBITORS FOR TREATMENT OF BARRETT'S ESOPHAGUS AND GASTROESOPHAGEAL REFLUX DISEASE” (LUMENA PHARMACEUTICALS, INC., priority 2013, published 2014).

Like-named read-outs stand apart in the source and are kept apart here. Where only a bound is given, the exact number is not on record here.

In data set [1] the test system is fecal total bile acid (FBA). The experiment in a line: Fecal bile acids in monkeys, LUM001 for 14 days. Type of data set: in vivo, rhesus monkeys. The following applies: n=5. The text has this: Fifteen experimentally naive male rhesus monkeys were utilized in this study. These animals were 2.1 to 4.2 years of age and weighed between 2.8 to 4.3 kg on the day prior to treatment initiation. HARLAN TEKLAD PRIMATE DIET® (Certified) was provided daily in amounts appropriate for the size and age of the animals. The diet was supplemented with fruit or vegetables 2-3 times weekly. Small bits of fruit, cereal or other treats were given to the animals following dose administration and periodically as part of facility's environmental enrichment program. Beginning prior to treatment initiation, only non-fat treats were provided to the animals (e.g., standard primate treats including peanut butter, sunflower seeds, baby food, nuts, pudding, and worms were specifically not permitted). Tap water was available ad libitum via an automatic watering device. Each animal was administered a dose of the LUM001 contained within gelatin capsules or the control article (empty gelatin capsules) once daily for 14 consecutive days. Fecal samples for determination of bile acid content were collected over approximately 24-hour periods beginning three days prior to treatment initiation and continuing until scheduled termination of dosing on Day 15. Samples were stored at −70 C until analysis.
Fecal samples were collected to determine the fecal total bile acid (FBA) concentration for each animal. Fecal collections were made during the final 72 hours of the study, for three consecutive 24-hour periods between 9:00 am and 10:00 am each day, prior to dosing and feeding. The separate daily collections from each dog were weighed, combined and homogenized with distilled water in a food processor to generate a homogeneous slurry. Homogenate (1.4 g) was extracted in a final concentration ratio of 2:0.6 of 50% (v/v) tertiary butanol/distilled water for 45 minutes in a 37° C. water bath and subjected to centrifugation for 13 minutes at 2000×g. The concentration of bile acids (mmolesgram homogenate) was determined using a 96-well enzymatic assay system. Aliquots of the fecal extracts (20 μl) were added to two sets of triplicate wells in a 96 well assay plate. A standardized sodium taurocholate solution and a standardized fecal extract solution (previously made from pooled samples and characterized for its bile acid concentration) were also analyzed for assay quality control. Aliquots of sodium taurocholate (20 μl), were serially diluted to generate a standard curve containing 30-540 nmoles/well. A 230 μl aliquot of reaction mixture containing 1M hydrazine hydrate, 0.1 M pyrophosphate and 0.46 mg/ml NAD was added to each well. […] Following 60 minutes of incubation at room temperature, the optical density at 340 nm was measured and the mean of each set of triplicate samples was calculated. […]

Data set [2] in a line: Pharmacokinetics of LUM001 after oral gavage in rats. Type of data set: in vivo. The following applies: both sexes, Sprague Dawley, rat, plasma; for bioavailability: read-out: BA (bioavailability); for AUC(0-t): read-out: AUC(0-8 h). Here is the method:
Groups of fasted Sprague Dawley rats (n=6/sex/group) were administered LUM001 as a single oral solution dose of either 1, 5 or 30 mg LUM001 free form/kg. The dose of 5 mg LUM001 free form/kg was also administered to rats in a fed state to evaluate the effect of food on plasma concentrations of LUM001 free form. Since LUM001 is a chloride salt, 105% of the amount of LUM001 is required to deliver the stated dose of the free form. The oral dose was delivered to the rat in Tween 80Milli-Q water (0.2% Tween, v/v) and was prepared on the day of dosing.
Blood samples of approximately 1 mL (n=2/sex/timepoint/treatment group) were collected by retro-orbital bleed into chilled tubes containing heparin at timepoints 0 (predose), 0.25, 0.5, 1, 1.5, 2, 3, 5 and 8 hours. The plasma samples were prepared by centrifugation of blood within 30 minutes after sample collection. All samples were stored at −20° C.±5° C. until analysis to study the relative exposures of LUM001 free form after oral solution dosing. The concentration of LUM001 free form in plasma were determined using an LCMSMS method. The assay sensitivity was 2.38 ng/mL.
Means and standard errors of the means (SEM) were calculated for plasma concentrations at each time point. Mean values are significant to three figures and SEM values are significant to the same decimal place as the corresponding mean. Concentration values less than the assay sensitivity (2.38 ng LUM001 free form/mL) were reported as zero. The area under the plasma concentration-time curve (AUC) was calculated from time 0 to 8 hours using a non-compartmental model in WinNonlin (1). The bioavailability (% BA) of LUM001 after oral administration of LUM001 was calculated according to the equation below:
% BA=[AUC oral (0-8)/AUC IV(0-8)/Dose oral/Dose IV]×100.

For another data set, the system named is total serum bile acids. Put plainly: Plasma total serum bile acids in ZDF rats, week 3. Type of data set: in vivo. The note with it: twice daily oral gavage.
Setting [3] is: 5 mg/kg, single oral gavage 5 mg/kg free form, fasted.
The mark [4] stands for this setting: 5 mg/kg, single oral gavage 5 mg/kg free form, fed.
Setting [5] is: 30 mg/kg, single oral gavage 30 mg/kg free form, fasted.

The term bioavailability denotes the share of a dose that reaches the circulation, judged against a reference dose that is usually intravenous. Usually Cmax stands for the maximum level reached in the sampled fluid or tissue. As a reminder, the Tmax is the time at which the peak concentration occurs.

On to `CCCCC1(CCCC)CS(=O)(=O)c2ccc(N(C)C)cc2[C@@H](c2ccc(OCc3ccc(C[N+]45CCN(CC4)CC5)cc3)cc2)[C@H]1O` [LUM001], for which the “Fecal Total Bile Acids” value is 23 µmol/day/kg in data set [1] (5 mg/kg once daily 14 days, Day 15); 6 µmol/day/kg in data set [1] (5 mg/kg once daily, Prestudy); 63 µmol/day/kg in data set [1] (50 mg/kg once daily 14 days, Day 15); 6 µmol/day/kg in data set [1] (50 mg/kg once daily, Prestudy). The bioavailability is less than 0.1% in data set [2] (1 mg/kg, single oral gavage 1 mg/kg free form, fasted); 0.1% in data set [2] (setting [3]); 0.2% in data set [2] (setting [4]); less than 0.1% in data set [2] (setting [5]). The values for the peak concentration (Cmax) in data set [2] (setting [3]), in data set [2] (setting [4]) and in data set [2] (setting [5]) were 2.45 ng/mL, 3.58 ng/mL and 5.43 ng/mL, respectively. For the same compound, the Tmax in data set [2] (setting [3]) turned out to be 60 min; in data set [2] (setting [4]), 15 min; in data set [2] (setting [5]) it was 30 min. Further, the AUC(0-t) in data set [2] (setting [3]) was determined as 6.58 ng·h/mL; in data set [2] (setting [4]), 12.6 ng·h/mL; in data set [2] (setting [5]), 4.16 ng·h/mL.

Consider `CCCC[C@]1(CC)CS(=O)(=O)c2ccc(N(C)C)cc2[C@@H](c2cccc(NC(=O)N[C@@H]3O[C@H](COS(=O)(=O)[O-])[C@@H](O)[C@H](OCc4ccccc4)[C@H]3O)c2)[C@H]1O.CCO.O.[K+]` [LUM002, potassium((2R,3R,4S,5R,6R)-4-benzyloxy-6-{3-[3-((3S,4R,5R)-3-butyl-7-dimethylamino-3-ethyl-4-hydroxy-1,1-dioxo-2,3,4,5-tetrahydro-1H-benzo[b]thiepin-5-yl)-phenyl]-ureido}-3,5-dihydroxy-tetrahydro-pyran-2-ylmethyl)sulphate ethanolate, hydrate], for which, in the data set on total serum bile acids, the “Plasma total serum bile acids (SBA)” value was “statistically significant reductions in SBA”.
